Assay results reported in the supplement of paper PMC10307832.

Assays:
Experiment in all cases: relative viability (nuclei count vs DMSO), 5 days (fraction); higher = more cells survive
[1] = compound: Cc1ccc2nc(NCCN)c3ncc(C)n3c2c1 + Cc1nc(NC(=O)N2CCC[C@H]2C(N)=O)sc1-c1ccnc(C(C)(C)C(F)(F)F)c1 [Alpelisib] (partner 2 µM)
Outline: (§1)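 Lung cancer cell lines, seeded in 1536-well plates, were treated the following day by pin tool with a single drug or with five library-drug doses (not always all listed) in √10 steps on top of a fixed anchor-drug dose. Cells were fixed and nuclei stained in one step after 5 days, and nuclei were counted. Relative viability is the nuclei count for treated wells divided by that for vehicle wells, reported as medians of duplicate plates.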

[2] = compound: Cc1ccc2nc(NCCN)c3ncc(C)n3c2c1 + O=C(CCCCCCC(=O)Nc1ccccc1)NO [Vorinostat] (partner 1 µM)
Outline: as §1

[3] = compound: Cc1ccc2nc(NCCN)c3ncc(C)n3c2c1 + COc1cc2c(Oc3ccc(NC(=O)C4(C(=O)Nc5ccc(F)cc5)CC4)cc3F)ccnc2cc1OCCCN1CCOCC1 [Foretinib] (partner 0.25 µM)
Outline: as §1

[4] = compound: O=C(/C=C/c1ccccc1)NC(NC(=S)Nc1cccc2cccnc12)C(Cl)(Cl)Cl [Salubrinal] + O=C(CCCCCCC(=O)Nc1ccccc1)NO [Vorinostat] (partner 1 µM)
Outline: as §1

With UMC-11 the relative viability ([1]; first compound 0.04 µM) was 0.946, the relative viability ([1]; first compound 0.1265 µM) was 0.906 and the relative viability ([1]; first compound 0.4 µM) was 1.03. It also gave a relative viability ([1]; first compound 1.265 µM) of 0.995, a relative viability ([1]; first compound 4 µM) of 0.817 and a relative viability ([2]; first compound 0.04 µM) of 0.421. It also gave a relative viability ([2]; first compound 0.1265 µM) of 0.344, a relative viability ([2]; first compound 0.4 µM) of 0.372 and a relative viability ([2]; first compound 1.265 µM) of 0.371. It also gave a relative viability ([2]; first compound 4 µM) of 0.357, a relative viability ([3]; first compound 0.04 µM) of 1.02 and a relative viability ([3]; first compound 0.1265 µM) of 0.999. For the same cell line, the relative viability ([3]; first compound 0.4 µM) was 1.02, the relative viability ([3]; first compound 1.265 µM) was 1.01 and the relative viability ([3]; first compound 4 µM) was 0.945. It also gave a relative viability ([4]; first compound 0.08 µM) of 0.349, a relative viability ([4]; first compound 0.253 µM) of 0.404 and a relative viability ([4]; first compound 0.8 µM) of 0.38. The relative viability ([4]; first compound 2.53 µM) was 0.334 and the relative viability ([4]; first compound 8 µM) was 0.398.
